Experimental findings from patent publication US9944618B2, “Inhibiting neurotransmitter reuptake” (Mayo Foundation for Medical Education and Research, priority 2013, dated 2018) are described below.

A short description of series [1]: pKa of basic centres (Table 1). Format: physicochemical.
The next series concerns the target CYP3A4 (Homo sapiens (Human), UniProt P08684). Kind of series: Cytochrome P450 inhibition assay, recombinant CYP3A4 (BFC substrate). Format: in vitro ADME. To be noted: recombinant enzyme.
The target of series [2] is human serotonin transporter (Homo sapiens (Human), UniProt P31645). The series is described as follows: Human SERT (serotonin transporter) uptake assay. Type of series: cell-based. The note with it: read-out: hSERT Ki. The procedure: This protocol was designed to measure inhibition of uptake by the human serotonin transporter. […] The Assay Buffer (AB) was […] and 0.02 M HEPES.
Chain of human serotonin transporter (P31645 whole entry): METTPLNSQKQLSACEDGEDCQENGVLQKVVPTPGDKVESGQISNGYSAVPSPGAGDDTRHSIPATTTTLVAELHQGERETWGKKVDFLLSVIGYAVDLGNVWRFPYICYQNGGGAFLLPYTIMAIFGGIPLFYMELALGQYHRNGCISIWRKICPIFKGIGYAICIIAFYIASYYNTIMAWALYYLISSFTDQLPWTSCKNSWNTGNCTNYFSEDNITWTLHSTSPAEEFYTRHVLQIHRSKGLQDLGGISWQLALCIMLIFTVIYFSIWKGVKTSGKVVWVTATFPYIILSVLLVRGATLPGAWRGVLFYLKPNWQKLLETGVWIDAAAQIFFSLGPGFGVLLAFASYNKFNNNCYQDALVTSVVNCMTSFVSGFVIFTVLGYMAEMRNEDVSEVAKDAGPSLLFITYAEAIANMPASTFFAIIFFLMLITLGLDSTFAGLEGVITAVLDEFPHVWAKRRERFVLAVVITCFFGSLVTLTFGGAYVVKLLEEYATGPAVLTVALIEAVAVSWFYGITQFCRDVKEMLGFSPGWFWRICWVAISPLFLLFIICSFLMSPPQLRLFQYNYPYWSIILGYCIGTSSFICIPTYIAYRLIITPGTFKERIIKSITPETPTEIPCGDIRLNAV
(§1) The HEK293F cells were transfected with the human serotonin transporter and frozen in 1 mL aliquots at about 1E+07 cells/mL. On the day of the experiment, the cells were removed from −80° C. or liquid nitrogen and thawed in a room temperature water bath. The cells were dilute to about 1-2E+06 with Freestyle medium. A 1 mL sample (1:2 dilution) was prepared, and the cells were counted. The cells were spun at 1100 rpm for 5 minutes, and the medium was aspirated off. The cells were resuspend in medium at 1.5E+06 cells/mL for about 60,000 cells per well. 40 μL of cells were dispensed per well in the Biocoat plates. The plates were spun at 1100 rpm for 1 minute to improve homogeneity of the cell layer and were incubated at 37° C. for a minimum of 3 hours.
12 μL of test compound (10 mM) in DMSO was added to the wells, and nomifensine was used as a control. Fluoxetine (final assay concentration of 10 μM) was used for background signal. The neurotransmitter transporter dye was prepared in AB prior to use.
Due to the proprietary nature of the dye formulation, all dye concentrations were expressed as a percentage of the vendor-recommended dye reconstitution. Thus, the above calculations were valid when both [dye] and Km were expressed in the same units (%). Compounds were tested in triplicate (n=3).

Series [3] concerns the target human dopamine transporter (Homo sapiens (Human), UniProt Q01959). Kind of series: Human DAT (dopamine transporter) uptake assay. Format: cell-based. The note with it: read-out: hDAT Ki. The method, then:
This protocol was designed to measure inhibition of uptake by the human dopamine transporter. […] The Assay Buffer (AB) was 1×HBSS and 0.02 M HEPES.
as §1, with “dopamine” for “serotonin”
12 μL of test compound (10 mM) in DMSO was added to the wells, and nomifensine was used as a control. […] The neurotransmitter transporter dye was prepared in AB prior to use.
Due to the proprietary nature of the dye formulation, all dye concentrations were expressed as a percentage of the vendor-recommended dye reconstitution. Thus, the above calculations were valid when both [dye] and K1 were expressed in the same units (%). Compounds were tested in triplicate (n=3).

In series [4] the target is human norepinephrine transporter (Homo sapiens (Human), UniProt P23975). The series is described as follows: Human NET (norepinephrine transporter) uptake assay. Format: cell-based. To be noted: read-out: hNET Ki. In outline: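 HEK293F cells transfected with human NET were thawed, plated at about 60,000 cells/well and held at 37 °C for at least 3 h. Compounds came from 10 mM DMSO stocks, with nomifensine as control, in 1×HBSS/0.02 M HEPES. Uptake was followed with a neurotransmitter transporter dye, dosed as % of vendor reconstitution, in triplicate.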
Chain of human norepinephrine transporter (P23975 whole entry): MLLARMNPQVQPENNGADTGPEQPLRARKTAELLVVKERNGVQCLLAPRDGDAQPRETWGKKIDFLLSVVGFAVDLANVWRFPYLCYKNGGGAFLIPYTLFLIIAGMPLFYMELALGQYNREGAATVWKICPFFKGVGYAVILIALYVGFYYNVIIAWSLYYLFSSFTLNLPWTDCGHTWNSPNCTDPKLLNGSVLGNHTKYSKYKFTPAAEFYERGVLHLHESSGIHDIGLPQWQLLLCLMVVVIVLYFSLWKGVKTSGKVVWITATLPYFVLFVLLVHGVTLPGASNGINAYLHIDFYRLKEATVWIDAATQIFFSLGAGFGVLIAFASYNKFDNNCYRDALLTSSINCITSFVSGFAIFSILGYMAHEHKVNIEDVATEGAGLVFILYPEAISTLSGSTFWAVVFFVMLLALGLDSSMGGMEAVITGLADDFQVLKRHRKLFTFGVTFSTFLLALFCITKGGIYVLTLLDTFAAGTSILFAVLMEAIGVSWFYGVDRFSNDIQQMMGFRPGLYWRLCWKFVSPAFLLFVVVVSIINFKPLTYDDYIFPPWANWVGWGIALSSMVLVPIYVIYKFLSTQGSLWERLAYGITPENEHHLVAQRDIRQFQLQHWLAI

A further series has as its target CYP2D6 (Homo sapiens (Human), UniProt P10635). The series is described as follows: Cytochrome P450 inhibition assay, recombinant CYP2D6 (MAMC substrate). Type of series: in vitro ADME. To be noted: recombinant enzyme.
Where [5] appears, read: first base, e.g., an aliphatic primary, secondary, or tertiary amine, read-out: pKa (Base 1).
[6] abbreviates: second base in the same molecule (if present), read-out: pKa (Base 2).

As usually defined, the pKa is the pH at which an ionisable group is half protonated. The IC50 is the point on the concentration scale where inhibition reaches its midpoint. Broadly, the Ki is the dissociation constant of the complex between target and ligand, obtained from inhibition or displacement.

Read-outs that look alike come from different tables or passages of the source.

Chain of CYP3A4 (P08684 whole entry): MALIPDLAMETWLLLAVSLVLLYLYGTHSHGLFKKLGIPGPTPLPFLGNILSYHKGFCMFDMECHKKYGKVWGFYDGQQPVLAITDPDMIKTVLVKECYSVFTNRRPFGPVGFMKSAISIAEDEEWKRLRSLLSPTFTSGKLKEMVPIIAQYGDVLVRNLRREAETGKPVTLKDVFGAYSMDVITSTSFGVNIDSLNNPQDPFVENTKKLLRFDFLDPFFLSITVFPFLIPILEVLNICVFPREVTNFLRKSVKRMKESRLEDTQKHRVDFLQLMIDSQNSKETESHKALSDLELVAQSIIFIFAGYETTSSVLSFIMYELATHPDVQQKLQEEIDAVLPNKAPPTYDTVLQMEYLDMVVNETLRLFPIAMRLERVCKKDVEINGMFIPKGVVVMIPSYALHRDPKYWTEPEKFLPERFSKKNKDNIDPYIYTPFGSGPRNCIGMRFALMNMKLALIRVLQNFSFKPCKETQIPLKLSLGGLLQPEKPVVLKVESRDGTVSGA
Chain of CYP2D6 (P10635 whole entry): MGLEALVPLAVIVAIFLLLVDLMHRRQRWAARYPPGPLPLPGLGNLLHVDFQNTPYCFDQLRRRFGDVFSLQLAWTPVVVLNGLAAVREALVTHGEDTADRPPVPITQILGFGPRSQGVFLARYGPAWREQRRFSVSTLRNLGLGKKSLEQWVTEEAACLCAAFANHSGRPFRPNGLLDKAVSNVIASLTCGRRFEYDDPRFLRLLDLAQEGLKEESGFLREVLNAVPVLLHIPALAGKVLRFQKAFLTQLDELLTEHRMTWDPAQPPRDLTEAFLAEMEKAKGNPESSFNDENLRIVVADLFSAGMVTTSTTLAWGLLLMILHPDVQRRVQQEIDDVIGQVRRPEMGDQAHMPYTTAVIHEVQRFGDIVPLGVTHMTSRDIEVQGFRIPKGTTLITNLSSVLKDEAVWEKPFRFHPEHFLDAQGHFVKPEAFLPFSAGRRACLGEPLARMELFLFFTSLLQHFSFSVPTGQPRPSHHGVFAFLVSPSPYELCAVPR
Chain of human dopamine transporter (Q01959 whole entry): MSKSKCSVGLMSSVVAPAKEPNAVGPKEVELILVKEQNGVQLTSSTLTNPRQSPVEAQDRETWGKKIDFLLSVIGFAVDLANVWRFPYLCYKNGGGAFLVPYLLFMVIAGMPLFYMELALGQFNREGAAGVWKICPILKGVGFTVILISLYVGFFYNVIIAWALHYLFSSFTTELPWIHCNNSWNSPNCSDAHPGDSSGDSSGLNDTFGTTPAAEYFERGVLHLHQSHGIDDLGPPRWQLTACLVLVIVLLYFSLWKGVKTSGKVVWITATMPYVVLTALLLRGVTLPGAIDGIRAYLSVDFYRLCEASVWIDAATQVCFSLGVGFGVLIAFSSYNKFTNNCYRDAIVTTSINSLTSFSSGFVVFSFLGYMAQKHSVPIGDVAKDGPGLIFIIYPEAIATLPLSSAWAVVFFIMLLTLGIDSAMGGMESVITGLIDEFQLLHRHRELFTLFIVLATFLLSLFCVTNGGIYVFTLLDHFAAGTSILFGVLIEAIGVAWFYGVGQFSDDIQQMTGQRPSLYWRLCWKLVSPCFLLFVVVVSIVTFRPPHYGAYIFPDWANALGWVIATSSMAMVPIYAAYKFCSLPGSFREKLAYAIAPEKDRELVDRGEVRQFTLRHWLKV

As to `CNC[C@@H](c1ccc2ccccc2c1)[C@H](O)c1cc(F)cc(F)c1` [Compound 142], the pKa in series [1] (setting [5]) was found to be 9.6. The 50% inhibitory concentration (IC50) at CYP3A4 was 20000 nM; on CYP2D6, 660 nM. The Ki in series [2] worked out at 208 nM; in series [3] it was 95.3 nM; in series [4], 13.8 nM.

Consider `CNC[C@H](c1ccc(Cl)c(Cl)c1)[C@@H](O)c1ccccc1S(C)(=O)=O` [Compound 170], for which the pKa in series [1] (setting [5]) came to 9.3. Moreover, the results for the IC50 on CYP3A4 and on CYP2D6 were 4800 nM and 380 nM, respectively. The inhibitory constant (Ki) is 2010 nM in series [2], 40 nM in series [3] and 306 nM in series [4].

As for `CNC[C@@H](c1ccc(Cl)c(Cl)c1)[C@@H](O)c1cccc(NS(=O)(=O)C(F)(F)F)c1` [Compound 121], the pKa in series [1] (setting [5]) was determined as 9.4. Further, the IC50 on CYP3A4 and on CYP2D6 was 20000 nM each time. The inhibitory constant (Ki) was 2850 nM in series [2], 5 nM in series [3] and 270 nM in series [4].

On to `CCc1cccc([C@@H](O)[C@H](CNC)c2ccc(Cl)c(Cl)c2)c1` [Compound 159], for which, in series [1] (setting [5]), the pKa is 9.4. Also, the values for the IC50 at CYP3A4 and on CYP2D6 were 2500 nM and 170 nM, respectively. The figures for the inhibition constant (Ki) in series [2], in series [3] and in series [4] were 69.5 nM, 55.8 nM and 55.4 nM, respectively.

Regarding `CNC[C@@H](c1ccc(Cl)c(Cl)c1)[C@@H](O)c1cccc(N)c1` [Compound 119], the pKa is 9.4 in series [1] (setting [5]) and 4.3 in series [1] (setting [6]). Besides, the figures for the 50% inhibitory concentration (IC50) on CYP3A4 and on CYP2D6 were 7900 nM and 4100 nM, respectively. The Ki in series [2] amounted to 1780 nM; in series [3] it was 75.5 nM; in series [4] it was 257 nM.

In the case of `CNC[C@@H](c1ccc(Cl)c(Cl)c1)[C@@H](O)c1ccsc1` [Compound 106], the pKa in series [1] (setting [5]) turned out to be 9.5. The results for the IC50 on CYP3A4 and on CYP2D6 were 20000 nM and 3900 nM, respectively. In addition, the Ki in series [2] is 742 nM; in series [3], 19.7 nM; in series [4], 80.6 nM.

For `CNC[C@@H](c1ccc(Cl)c(Cl)c1)[C@@H](O)c1cccc(Br)c1` [Compound 162], the pKa in series [1] (setting [5]) is 9.4. In addition, the IC50 at CYP3A4 stood at 4900 nM; on CYP2D6, 790 nM. The Ki came to 806 nM in series [2], 110 nM in series [3] and 108 nM in series [4].

Regarding `CNC[C@@H](c1ccc(Cl)c(Cl)c1)[C@@H](O)c1cccc([S+](C)[O-])c1` (single isomer, unassigned) [Compound 116], in series [1] (setting [5]), the pKa was determined as 9.4. In addition, the IC50 at CYP3A4 is 20000 nM; at CYP2D6, 15000 nM. Moreover, the values for the inhibition constant Ki in series [2], in series [3] and in series [4] were 1690 nM, 39.7 nM and 195 nM, respectively.

For `CNC[C@H](c1ccc(OC)c(C)c1)[C@H](O)c1cccnc1` [Compound 55], the pKa in series [1] (setting [5]) stood at 10. The half-inhibitory concentration (IC50) amounted to 20000 nM on CYP3A4 and 810 nM on CYP2D6. In addition, the Ki in series [2] came out at 1.8 nM; in series [3], 1630 nM; in series [4] it was 4.6 nM.

As for `CNC[C@@H](c1ccc(Cl)c(Cl)c1)[C@@H](O)c1cccc(N(C)C)c1` (single isomer, unassigned) [Compound 108], the pKa was 9.5 in series [1] (setting [5]) and 4.9 in series [1] (setting [6]). Also, the results for the half-maximal inhibitory concentration (IC50) on CYP3A4 and at CYP2D6 were not below 20000 nM and 2200 nM, respectively. Moreover, the values for the Ki in series [2], in series [3] and in series [4] were 754 nM, 57.1 nM and 88.5 nM, respectively.

Take `CNC[C@@H](c1ccc(Cl)c(Cl)c1)[C@@H](O)c1cccc(SC)c1` [Compound 120]: the pKa in series [1] (setting [5]) was 9.4. In addition, the IC50 came to 9000 nM on CYP3A4 and 2400 nM on CYP2D6. The Ki turned out to be 662 nM in series [2], 88.5 nM in series [3] and 262 nM in series [4].

With `CNC[C@H](c1ccc2ccccc2c1)[C@H](O)c1cc(F)cc(F)c1` (racemic) [Compound 41], the pKa in series [1] (setting [5]) came out at 9.6. Further, the IC50 on CYP3A4 was 19000 nM; on CYP2D6, 130 nM. The Ki is 52.5 nM in series [2], 10.6 nM in series [3] and 3.2 nM in series [4].
